Experimental data from US6781020B2, “Water soluble bactericide and producing method thereof” (VMC Co., Ltd., priority 2001, dated 2004).

Key:
[1] = tested on: standard strain of Pseudomonas aeruginosa; test: bactericidal ability test, development of bacteria after contact and overnight culture; format: cell-based; settings: ozone-oxidized glycerin of about 10 unit/g, cultured overnight at 37° C., FIG. 1
[2] = tested on: clinical isolated strain of Salmonella; settings: ozone-oxidized glycerin of about 10 unit/g, cultured overnight at 37° C., FIG. 1
[3] = tested on: standard strain of Staphylococcus aureus; test: bactericidal ability test, development of bacteria after contact and overnight culture; format: cell-based; settings: ozone-oxidized glycerin of about 10 unit/g, cultured overnight at 37° C., FIG. 1
[4] = tested on: standard strain of Escherichia coli; test: as above; format: cell-based; settings: ozone-oxidized glycerin of about 10 unit/g, cultured overnight at 37° C., FIG. 1
catalase = target: T1, catalase (Homo sapiens, UniProt P04040); test: catalase test, oxidation ability in time sequence by potassium iodide titration; format: physicochemical; settings: catalase final concentration 0.003%
T1 sequence (P04040 1-527): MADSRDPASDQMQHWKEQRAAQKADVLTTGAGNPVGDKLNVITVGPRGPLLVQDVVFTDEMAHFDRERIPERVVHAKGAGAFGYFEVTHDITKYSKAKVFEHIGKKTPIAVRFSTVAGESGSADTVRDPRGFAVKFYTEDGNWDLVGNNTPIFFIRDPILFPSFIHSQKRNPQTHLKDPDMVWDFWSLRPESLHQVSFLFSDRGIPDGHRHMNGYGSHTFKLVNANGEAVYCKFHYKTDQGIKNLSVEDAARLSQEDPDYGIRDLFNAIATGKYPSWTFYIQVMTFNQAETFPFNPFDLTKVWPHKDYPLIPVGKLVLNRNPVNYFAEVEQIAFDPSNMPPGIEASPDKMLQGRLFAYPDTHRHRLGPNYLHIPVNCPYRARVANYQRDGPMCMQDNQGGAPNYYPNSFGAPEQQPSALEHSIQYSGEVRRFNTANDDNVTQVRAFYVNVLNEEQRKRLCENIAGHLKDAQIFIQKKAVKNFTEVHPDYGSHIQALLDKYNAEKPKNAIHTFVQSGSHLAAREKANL

Compound	bactericidal effects [1]	bactericidal effects [2]	bactericidal effects [3]	bactericidal effects [4]	time until the oxidation ability almost disappeared (catalase; 0.03% hydrogen peroxide solution, FIG. 8 left)	attenuation of the oxidation ability due to catalase (catalase; FIG. 8)
OCC(O)CO [glycerin]	not recognized	not recognized	not recognized	not recognized	–	–
OO [hydrogen peroxide]	–	–	–	–	5 min	rapidly attenuated
